According to US10426755B2, “Methods for inhibiting cancer cells” (Chang Gung Memorial Hospital, Chiayi, priority 2015, dated 2019):
“Also recorded” adds a separate entry of the source.

What was measured:
Assay type in all cases: cell-based
[1] = tested on: lung cancer cells (A549 and chemotherapy-resistant/metastatic H460); assay: Annexin V/PI flow cytometry apoptosis/necrosis, lung cancer cells; conditions: 10 or 20 μM DT, 24-48 hours, vs PBS and DMSO vehicle (CT); time dependent; FIG. 7
Experimental: The effect of DT on metastatic prostate cancer cells (hormone therapy-resistant PC3, DU145 and LNCaP); lung cancer cells (A549 and chemotherapy-resistant/metastatic H460); and breast cancer cells (MCF-7, tamoxifen-resistant MCF7 and MDA MB-231) was assessed.
1×10^6 Cancer cells were seeded in a 100-mm plate and cultured overnight. The cancer cells were treated with phosphate buffered saline (PBS), a Dimethyl sulfoxide (DMSO) vehicle (CT), 10 or 20 μM of DT for 24-48 hours, then collected and washed with cold PBS. The supernatant was removed by centrifugation and resuspended in FITC Annexin V binding buffer and Propidium iodide (PI) (Annexin V-FITC Apoptosis Detection Kit, commercially available from Strong Biotech Corporation, Taiwan). The suspended cancer cells were stained at room temperature, in the dark for 15 min and analyzed by the BD FACSCanto™ flow cytometry (Becton Dickinson, USA). The amount of early apoptosis, late apoptosis, and necrosis was measured as the percentage of annexin-V positive/PI negative (Q4 in the FACS images), annexin-V positive/PI positive (Q2 in the FACS images), and annexin-V negative/PI positive cells (Q1 in the FACS images), respectively. Normal cells are in […] of the FACS images.

[2] = tested on: prostate cancer cell lines (LNCaP, hormone therapy-resistant PC3, DU145 and 22RV1); assay: XTT proliferation assay, prostate cancer cells; conditions: 1, 5 and 10 μM DT, 1-2 days, XTT absorbance 492 nm; FIG. 1
Experimental: An in vitro evaluation of the effect of dihydroisotanshinone I (DT) on the following prostate cancer cell lines was performed: LNCaP (with lymph node metastasis), hormone therapy resistant PC3 (with bone metastasis), 22RV1, DU145 (with brain metastasis), were obtained from Bioresource Collection and Research Center, Taiwan and DT was purchased from ChemFaces Co., Ltd., China.
The prostate cancer cells were plated at a density of 10^3 or 3×10^3 per well, in a 96-well plate, in a medium containing 10% Fetal bovine serum (FBS) (Gibco®, commercially available from Life Technologies, USA). Once the prostate cancer cells were attached to the culture dish, the 10% FBS medium was replaced with a second 10% FBS medium and each of the prostate cancer cell line was treated with 1, 5, and 10 μM of DT respectively for 1-2 days. The absorbance was measured using XTT assay kit (commercially available from Roche, Switzerland) at 492 nm using an ELISA reader (Bio-Rad Laboratories, USA).

[3] = tested on: prostate cancer cells (PC3, DU145 and 22RV1); assay: Prostate cancer cell invasion assay with DT-treated conditioned media; conditions: 5-10 μM DT, 24 hours, results not shown
Experimental: Cell Invasion Assay: cells of interest were treated with a control vehicle, 5 or 10 μM of DT and incubated for 3 days. 1×10^5 cells were placed into the upper chamber of transwell plates (8 μm) with membranes pre-coated with 20% Matrigel and the bottom chamber contained 600 μL media supplemented with 10% fetal bovine serum (FBS). The cells migrated to the bottom of the chamber were fixed, stained and counted.
As illustrated in Example 10, the production of CCL2 was inhibited by DT in both prostate cancer cells and macrophage, the effect of DT on monocyte/cancer cell co-culture and macrophage/cancer cell co-culture was examined using the invasion assay described in Example 9. • (a) THP1 monocytes, Raw264.7 macrophage, monocyte/prostate cancer co-culture and macrophage/prostate cancer co-culture were treated with a vehicle (DMSO), 5 or 10 μM DT for 24 hours, the cultured medium was collected and placed into the lower chamber of a transwell plate. • (b) Prostate cancer cells (PC3, DU145 and 22RV1) were placed in the cell invasion assay). The level of CCL2 in the invasion assay was measured by ELIZA method.

[4] = tested on: CCL2 in hormone therapy resistant and metastatic PC3 prostate cancer cells; assay: CCL2 ELISA of culture medium, PC3; conditions: 5 or 10 μM DT, 24 hours, vs DMSO, FIG. 14 (d)
Experimental: (§1) It has been reported that increased CCL2 expression enhances cancer cell metastasis via macrophage recruitment. The effect of DT on CCL2 expression in RAW264.7 macrophages, THP1 monocytes and prostate cancer cells (metastatic DU145 and hormone therapy resistant and metastatic PC3) was examined by treating the cells with DMSO (control), 5 or 10 μM DT for 24 hours.
(§2) The culture medium was collected and the concentration of CCL2 was measured using ELISA assay.

[5] = tested on: CCL2 in metastatic DU145 prostate cancer cells; assay: CCL2 ELISA of culture medium, DU145; conditions: 5 or 10 μM DT, 24 hours, vs DMSO, FIG. 14 (c)
Experimental: as §1, §2

Cc1cccc2c3c(ccc12)C(=O)C1=C(OCC1C)C3=O (centres unmarked) [DT, dihydroisotanshinone I]
early apoptosis, late apoptosis and necrosis, lung cancer cells [1]: more early apoptosis, late apoptosis and necrosis; also recorded: induced lung cancer cell apoptosis/necrosis
inhibition of prostate cancer cell proliferation [2]: inhibits prostate cancer cell proliferation in a dose dependent fashion
migration of prostate cancer cells ([3]; DT-treated macrophage medium): significantly inhibit the migration of prostate cancer cells in a dose-dependent manner
migration of prostate cancer cells ([3]; DT-treated macrophage/prostate cancer co-culture medium): significantly inhibit the migration of prostate cancer cells in a dose-dependent manner
migration of prostate cancer cells ([3]; DT-treated monocyte medium): significantly inhibit the migration of prostate cancer cells in a dose-dependent manner
migration of prostate cancer cells ([3]; DT-treated monocyte/prostate cancer co-culture medium): significantly inhibit the migration of prostate cancer cells in a dose-dependent manner
production of CCL2 in PC3 prostate cancer cells [4]: effectively inhibit the production of CCL2
production of CCL2 in metastatic DU145 prostate cancer cells [5]: effectively inhibit the production of CCL2
